Assay results published in ChEMBL document CHEMBL5131523, “Long-Awaited Small-Molecule Drug Candidate for Drugging the Next Undruggable KRASG12D Mutant in Cancer Therapy” (ACS Med Chem Lett, 2022).
pIC50: −log10 of the molar value.

Test system: BaF3
Assay: Antiproliferative activity against mouse BaF3 cells harboring KRAS G12D mutant assessed as inhibition of cell proliferation incubated for 3 days by CellTiter-Glo assay
Type: toxicity, cell-based
Settings: BaF3, 72 h

Row | Compound | pIC50
1 | Oc1cc(-c2nc(Cl)c3c(N4C[C@H]5CC[C@@H](C4)N5)nc(OC[C@@]45CCCN4C[C@H](F)C5)nc3c2F)c2ccccc2c1 | ≥ 6.30
2 | Oc1cc(-c2nc(O)c3c(N4C[C@H]5CC[C@@H](C4)N5)nc(OC[C@@]45CCCN4C[C@H](F)C5)nc3c2F)c2c(Cl)c(F)ccc2c1 | 6.30
3 | C#Cc1c(F)ccc2cc(O)cc(-c3nc(OCC(F)F)c4c(N5C[C@H]6CC[C@@H](C5)N6)nc(OC[C@@]56CCCN5C[C@H](F)C6)nc4c3F)c12 | ≥ 6.30
4 | C#Cc1c(F)ccc2cc(O)cc(-c3nc(OC(F)F)c4c(N5C[C@H]6CC[C@@H](C5)N6)nc(OC[C@@]56CCCN5C[C@H](F)C6)nc4c3F)c12 | ≥ 6.30
5 | CCOc1nc(-c2cc(O)cc3ccc(F)c(Cl)c23)c(F)c2nc(OC[C@@]34CCCN3C[C@H](F)C4)nc(N3C[C@H]4CC[C@@H](C3)N4)c12 | ≥ 6.30
6 | C#Cc1c(F)ccc2cc(O)cc(-c3nc(OC(C)C)c4c(N5C[C@H]6CC[C@@H](C5)N6)nc(OC[C@@]56CCCN5C[C@H](F)C6)nc4c3F)c12 | ≥ 6.30
7 | C#Cc1c(F)ccc2cc(O)cc(-c3nc(OC(C)C)c4c(N5C[C@H]6CC[C@@H](C5)N6)nc(C(F)F)nc4c3F)c12 | ≥ 6.30
8 | C#Cc1c(F)ccc2cc(O)cc(-c3nc(OC(C)C)c4c(N5C[C@H]6CC[C@@H](C5)N6)nc(NC)nc4c3F)c12 | 6.30
9 | Fc1c(-c2cccc3cccc(Cl)c23)ncc2c(N3C[C@H]4CC[C@@H](C3)N4)nc(OCC34CCCN3CCC4)nc12 | ≥ 6.30
10 | C#Cc1c(F)ccc2cc(O)cc(-c3nc(OCC)c4c(N5CCNC6(CCC6)C5)nc(OC[C@@]56CCCN5C[C@H](F)C6)nc4c3F)c12 | ≥ 6.30
11 | Cc1nc(-c2cc(O)cc3cccc(Cl)c23)c(F)c2nc(OC[C@@]34CCCN3C[C@H](F)C4)nc(N3C[C@H]4CC[C@@H](C3)N4)c12 | ≥ 6.30
12 | Cc1cccc2cc(O)cc(-c3nc(C)c4c(N5C[C@H]6CC[C@@H](C5)N6)nc(OC[C@@]56CCCN5C[C@H](F)C6)nc4c3F)c12 | ≥ 6.30
